# Source: patent US10239843B2 (CANCER RESEARCH TECHNOLOGY LIMITED, priority 2014, dated 2019)
# Like-named read-outs stand apart in the source and are kept apart here.
# How the values were obtained:
# Human Full Length PARG = Human Full Length PARG (Homo sapiens (Human), UniProt Q86W56); experiment: PARG enzyme assay (TR-FRET); type: biochemical; settings: read-out: PARG Biochem IC50 Geomean
# PARG in HeLa cell line = experiment: PARG cell assay (PAR chain immunofluorescence after MMS); type: cell-based; settings: HeLa cells, MMS 50 μg/mL, read-out: PARG Cell IC50 Geomean
# Description: This method is based on the detection of endogenous levels of poly (ADP) ribose chains present in the nucleus of HeLa cell line using indirect immunofluorescence. MMS stimulation increases PAR chains for up to 25 mins. After that point, PARG is active and breaks down the PAR chains, until by one hour after stimulation no PAR chains are detectable. Inhibition of PARG maintains PAR chains.
# Briefly, following compound treatment and treatment with the DNA damaging agent methylmethanesulfonate (MMS), the cell monolayer is fixed, then permeabilised and incubated with a mouse monoclonal antibody raised against multimers of poly(ADP) ribose.
# At the end of the 1 h dosing period, MMS was added to duplicates at a final concentration of 50 μg/mL, for a further hour.
# Media was tipped off and the cells fixed with 50 μL ice-cold 95% MetOH/PBS for 15 mins at −20° C. Following a PBS wash, 50 μL PBS/0.1% Triton was added to the cells for 20 mins. Following another PBS wash, anti-PAR antibody (Calbiochem AM80) was diluted 1:4000 in a buffer (PBS+0.5% FBS+0.05% Tween20) and added to the cells and incubated overnight at 4° C.
# Cells were washed three times with PBS and the plate sealed with a light-proof seal.
# Human Full Length PARG, sequence (Q86W56 whole entry): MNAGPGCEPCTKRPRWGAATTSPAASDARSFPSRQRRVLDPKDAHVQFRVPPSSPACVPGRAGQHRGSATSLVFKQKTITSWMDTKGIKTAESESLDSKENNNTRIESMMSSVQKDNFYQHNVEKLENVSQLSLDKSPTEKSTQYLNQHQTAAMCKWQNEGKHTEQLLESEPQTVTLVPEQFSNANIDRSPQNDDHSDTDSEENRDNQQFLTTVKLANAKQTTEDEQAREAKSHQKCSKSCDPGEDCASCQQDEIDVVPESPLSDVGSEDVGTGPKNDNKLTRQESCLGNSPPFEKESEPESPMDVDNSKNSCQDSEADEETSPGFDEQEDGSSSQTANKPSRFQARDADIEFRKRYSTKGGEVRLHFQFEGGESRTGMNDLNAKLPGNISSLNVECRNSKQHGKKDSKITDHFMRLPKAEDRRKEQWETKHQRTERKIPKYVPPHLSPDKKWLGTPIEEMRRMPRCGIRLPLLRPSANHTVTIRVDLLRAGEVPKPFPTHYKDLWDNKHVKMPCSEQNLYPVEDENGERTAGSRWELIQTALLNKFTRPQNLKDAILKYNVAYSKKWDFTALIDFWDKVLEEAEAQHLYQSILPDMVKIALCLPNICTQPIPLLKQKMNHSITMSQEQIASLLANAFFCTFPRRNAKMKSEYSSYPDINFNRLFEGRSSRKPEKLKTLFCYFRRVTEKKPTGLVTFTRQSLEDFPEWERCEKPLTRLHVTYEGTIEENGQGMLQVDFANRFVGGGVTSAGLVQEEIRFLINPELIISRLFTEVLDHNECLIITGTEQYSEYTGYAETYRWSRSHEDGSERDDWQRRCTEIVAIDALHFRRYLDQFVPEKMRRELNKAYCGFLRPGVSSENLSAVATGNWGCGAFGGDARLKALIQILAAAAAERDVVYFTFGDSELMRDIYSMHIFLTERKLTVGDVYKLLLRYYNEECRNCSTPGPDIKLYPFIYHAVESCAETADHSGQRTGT
SMILES,IC50 (Human Full Length PARG),IC50 (PARG in HeLa cell line; Homo sapiens),IC50 (PARG in HeLa cell line)
Cn1c(=O)c2cc(S(=O)(=O)NC3(C)CC3)ccc2n(Cc2ccccc2C#N)c1=O [Example 68],324 nM,306 nM,–
Cc1ncc(Cn2c(=O)c3cc(S(=O)(=O)NC4(C)CC4)ccc3n(C)c2=O)s1 [Example 109],483 nM,288 nM,–
Cc1noc(C)c1Cn1c(=O)c2cc(S(=O)(=O)NC3(C)CC3)ccc2n(C)c1=O [Example 115],616 nM,386 nM,–
Cc1cc(Cn2c(=O)n(C)c(=O)c3cc(S(=O)(=O)NC4(C)CC4)ccc32)n(C)n1 [Example 127],384 nM,413 nM,–
Cn1c(=O)c2cc(S(=O)(=O)NC3(C)CC3)ccc2n(Cc2cncs2)c1=O [Example 143],342 nM,–,538 nM
Cn1nc(C(C)(C)C)cc1Cn1c(=O)n(C)c(=O)c2cc(S(=O)(=O)NC3(C)CC3)ccc21 [Example 149],293 nM,518 nM,–
Cn1cc(Cn2c(=O)n(C)c(=O)c3cc(S(=O)(=O)NC4(C)CC4)ccc32)cn1 [Example 152],463 nM,520 nM,–
Cc1ncc(Cn2c(OCC3CC3)nc3ccc(S(=O)(=O)NC4(C)CC4)cc3c2=O)s1 [Example 157],302 nM,138 nM,–
Cc1cc(COc2nc3ccc(S(=O)(=O)NC4(C)CC4)cc3c(=O)n2Cc2cnc(C)s2)n(C)n1 [Example 164],343 nM,–,782 nM
COc1cccc(Cn2c(=O)n(Cc3c(C)noc3C)c(=O)c3cc(S(=O)(=O)NC4(C)CC4)ccc32)c1 [Example 169],294 nM,–,288 nM
CCn1cc(Cn2c(=O)c3cc(S(=O)(=O)NC4(C)CC4)ccc3n(C)c2=O)cn1 [Example 181],447 nM,680 nM,–
"Cn1c(=O)n(Cc2cn[nH]c2)c(=O)c2cc(S(=O)(=O)NC3(C)CC3)ccc21 [Example 183, 1-methyl-N-(1-methylcyclopropyl)-2,4-dioxo-3-(1H-pyrazol-4-ylmethyl)quinazoline-6-sulfonamide]",379 nM,931 nM,–
CC1(NS(=O)(=O)c2ccc3c(c2)c(=O)n(CC#N)c(=O)n3Cc2ccc(F)cc2)CC1 [Example 186],441 nM,307 nM,–
COc1cccc(Cn2c(=O)n(CC#N)c(=O)c3cc(S(=O)(=O)NC4(C)CC4)ccc32)c1 [Example 187],467 nM,343 nM,–
CC1(NS(=O)(=O)c2ccc3c(c2)c(=O)n(CC#N)c(=O)n3CC2CC2)CC1 [Example 193],277 nM,556 nM,–
Cc1cc(Cn2c(=O)n(C)c(=O)c3cc(S(=O)(=O)NC4(C)CC4)c(F)cc32)n(C)n1 [Example 213],473 nM,787 nM,–
Cn1c(=O)n(Cc2cnc(NC(=O)OC(C)(C)C)s2)c(=O)c2cc(S(=O)(=O)NC3(C)CC3)ccc21 [Example 214],411 nM,–,3470 nM
Cn1c(=O)n(Cc2cnn(CC#N)c2)c(=O)c2cc(S(=O)(=O)NC3(C)CC3)ccc21 [Example 217],365 nM,529 nM,–
"Cc1cc(Cn2c(=O)[nH]c3ccc(S(=O)(=O)NC4(C#N)CC4)cc3c2=O)on1 [Example 228, N-(1-Cyanocyclopropyl)-3-[(3-methylisoxazol-5-yl)methyl]-2,4-dioxo-1H-quinazoline-6-sulfonamide]",356 nM,–,15200 nM
Cc1cc(Cn2c(=O)c3cc(S(=O)(=O)NC4(C#N)CC4)ccc3n(C)c2=O)on1 [Example 229],446 nM,1470 nM,–
Cc1cc(Cn2c(=O)c3cc(S(=O)(=O)NC4(C)CC4)ccc3n(Cc3noc(C)n3)c2=O)on1 [Example 243],312 nM,221 nM,–
Cc1cc(Cn2c(=O)c3cc(S(=O)(=O)NC4(C)CC4)ccc3n(CCN(C)C)c2=O)on1 [Example 246],469 nM,431 nM,–
Cc1cc(Cn2c(=O)c3cc(S(=O)(=O)NC4(C)CC4)ccc3n(CCCN(C)C)c2=O)on1 [Example 247],404 nM,310 nM,–
Cc1cc(Cn2c(=O)c3cc(S(=O)(=O)NC4(C)CC4)ccc3n(CC3CCCN3C)c2=O)on1 (stereo not drawn) [Example 249],402 nM,315 nM,–
CNCCCn1c(=O)n(Cc2cc(C)no2)c(=O)c2cc(S(=O)(=O)NC3(C)CC3)ccc21 [Example 250],323 nM,328 nM,–
COCCCn1c(=O)n(Cc2cc(C)no2)c(=O)c2cc(S(=O)(=O)NC3(C)CC3)ccc21 [Example 251],392 nM,–,178 nM
Cc1cc(Cn2c(=O)c3cc(S(=O)(=O)NC4(C)CC4)ccc3n(Cc3nc(C)no3)c2=O)on1 [Example 252],391 nM,297 nM,–

# Next, values leading:
IC50 (Human Full Length PARG),IC50 (PARG in HeLa cell line; Homo sapiens),IC50 (PARG in HeLa cell line),SMILES
240 nM,214 nM,–,Cc1ncc(Cn2c(=O)n(C)c(=O)c3cc(S(=O)(=O)NC4(C)CC4)ccc32)s1 [Example 126]
151 nM,342 nM,–,Cn1c(=O)c2cc(S(=O)(=O)NC3(C)CC3)ccc2n(Cc2cnc(Cl)s2)c1=O [Example 145]
109 nM,153 nM,–,C#CCn1c(=O)n(Cc2c(C)noc2C)c(=O)c2cc(S(=O)(=O)NC3(C)CC3)ccc21 [Example 159]
131 nM,229 nM,–,Cc1cc(Cn2c(=O)n(Cc3c(C)noc3C)c(=O)c3cc(S(=O)(=O)NC4(C)CC4)ccc32)n(C)n1 [Example 166]
160 nM,146 nM,–,Cc1noc(C)c1Cn1c(=O)c2cc(S(=O)(=O)NC3(C)CC3)ccc2n(Cc2ccc(F)cc2)c1=O [Example 168]
6 nM,20 nM,–,Cc1nc(C)c(Cn2c(=O)n(Cc3cnn(C)c3)c(=O)c3cc(S(=O)(=O)NC4(C)CC4)ccc32)s1 [Example 170]
49 nM,103 nM,–,Cn1cc(Cn2c(=O)c3cc(S(=O)(=O)NC4(C)CC4)ccc3n(Cc3ccc(F)cc3)c2=O)cn1 [Example 171]
100 nM,–,193 nM,COc1cccc(Cn2c(=O)n(Cc3cnn(C)c3)c(=O)c3cc(S(=O)(=O)NC4(C)CC4)ccc32)c1 [Example 172]
89 nM,85 nM,–,Cc1ncc(Cn2c(=O)c3cc(S(=O)(=O)NC4(C)CC4)ccc3n(Cc3ccc(F)cc3)c2=O)s1 [Example 176]
52 nM,126 nM,–,C#CCn1c(=O)n(Cc2cnn(C)c2)c(=O)c2cc(S(=O)(=O)NC3(C)CC3)ccc21 [Example 178]
274 nM,–,1100 nM,Cc1cc(Cn2c(=O)n(CC#N)c(=O)c3cc(S(=O)(=O)NC4(C)CC4)ccc32)n(C)n1 [Example 192]
245 nM,–,273 nM,C#CCn1c(=O)n(CC#N)c(=O)c2cc(S(=O)(=O)NC3(C)CC3)ccc21 [Example 194]
55 nM,49 nM,–,Cc1cc(Cn2c(=O)c3cc(S(=O)(=O)NC4(C)CC4)ccc3n(CC3CC3)c2=O)on1 [Example 197]
105 nM,76 nM,–,C#CCn1c(=O)n(Cc2cc(C)no2)c(=O)c2cc(S(=O)(=O)NC3(C)CC3)ccc21 [Example 198]
92 nM,–,99 nM,Cc1cc(Cn2c(=O)c3cc(S(=O)(=O)NC4(C)CC4)ccc3n(Cc3ccc(F)cc3)c2=O)on1 [Example 199]
250 nM,223 nM,–,COc1cccc(Cn2c(=O)n(Cc3cc(C)no3)c(=O)c3cc(S(=O)(=O)NC4(C)CC4)ccc32)c1 [Example 200]
190 nM,224 nM,–,Cc1nc(C)c(Cn2c(=O)n(C)c(=O)c3cc(S(=O)(=O)NC4CC4)ccc32)s1 [Example 201]
118 nM,646 nM,–,Cc1nc(C)c(Cn2c(=O)n(C)c(=O)c3cc(S(=O)(=O)NC4(C#N)CC4)ccc32)s1 [Example 204]
38 nM,–,116 nM,Cc1cc(Cn2c(=O)c3cc(S(=O)(=O)NC4(C)CC4)ccc3n(Cc3cc(C)nn3C)c2=O)on1 [Example 207]
36 nM,69 nM,–,Cc1cc(Cn2c(=O)c3cc(S(=O)(=O)NC4(C)CC4)ccc3n(Cc3cc(C)no3)c2=O)on1 [Example 208]
273 nM,481 nM,–,"Cc1ncc(Cn2c(=O)[nH]c3ccc(S(=O)(=O)NC4(C)CC4)cc3c2=O)s1 [Example 220, N-(1-Methylcyclopropyl)-3-[(2-methylthiazol-5-yl)methyl]-2,4-dioxo-1H-quinazoline-6-sulfonamide]"
127 nM,–,213 nM,Cc1cc(Cn2c(=O)c3cc(S(=O)(=O)NC4(C)CC4)ccc3n(Cc3cc(C(F)(F)F)nn3C)c2=O)on1 [Example 230]
55 nM,47 nM,–,Cc1ncc(Cn2c(=O)c3cc(S(=O)(=O)NC4(C)CC4)ccc3n(Cc3cc(C(F)(F)F)nn3C)c2=O)s1 [Example 231]
224 nM,–,314 nM,CN(C)CCn1c(=O)n(Cc2cnn(C)c2)c(=O)c2cc(S(=O)(=O)NC3(C)CC3)ccc21 [Example 235]
232 nM,285 nM,–,CN(C)CCCn1c(=O)n(Cc2cnn(C)c2)c(=O)c2cc(S(=O)(=O)NC3(C)CC3)ccc21 [Example 237]
158 nM,220 nM,–,CN1CCCCC1Cn1c(=O)n(Cc2cnn(C)c2)c(=O)c2cc(S(=O)(=O)NC3(C)CC3)ccc21 (stereo not drawn) [Example 238]
209 nM,–,127 nM,COCCCn1c(=O)n(Cc2cnn(C)c2)c(=O)c2cc(S(=O)(=O)NC3(C)CC3)ccc21 [Example 239]
